Reference: patent US12616656B2, “Adventitial painting modality of local drug delivery to abate intimal hyperplasia” (University of Virginia Patent Foundation, priority 2021, dated 2026)

Columns and labels:
IH in a rat model = details: perivascular administration; cited from earlier work
CD68 = assay: Immunostaining of the inflammation marker CD68; assay type: in vivo, Sprague-Dawley rats
Description: (§1) Paraffin-embedded specimens were processed into 5-μm thick sections for immunostaining. The slides were deparaffinized and hydrated through series of xylenes and graded alcohol. Antigens were retrieved using citrate buffer for 2 hours at 80° C. in a high-pressure cooker. Endogenous peroxidase was blocked by incubation with 3% H2O2 for 10 min. Following application of a monoclonal antibody against either cleaved Caspase 3 (9661, Cell Signaling Technology, Inc., Danvers, MA) or CD68 (T-3003, BMA Biomedicls, Augst, Switzerland), ImmPRESS HRP Anti-Rabbit IgG (Peroxidase) Polymer Detection Kit (MP-7451, Vector Laboratories Inc., Burlingame, CA) was used as the secondary antibody. The staining intensity was visualized using ImmPACT DAB Peroxidase (HRP) Substrate (SK-4105, Vector Laboratories). Data values from 6 different portions were averaged for each animal, and averages from total animals in a group were used to calculate mean+SEM and statistical analysis.

[1] = system: active (cleaved) caspase-3; assay: Immunostaining of the apoptosis marker active (cleaved) caspase-3; assay type: in vivo, Sprague-Dawley rats; details: Mode-3 painting, 14 days
Description: as §1

collagen = assay: Masson's trichrome staining, collagen density in the artery; assay type: in vivo, Sprague-Dawley rats; details: Mode-1, 14 days
Description: Four to six cross-sections cut from different locations (see detailed description above) from the balloon-injured CCA per each animal were used for Masson's trichrome staining. The color images were transformed into monochrome images at an 8-bit scale using Image J. After adjusting the threshold consistent through the analysis, integrated density of interest was measured. Data values from 6 sections were averaged for each animal, and averages from total animals in a group were used to calculate mean+SEM and statistical analysis.

Row | number of CD68-positive cells (CD68; Mode-1 and Mode-2, 14 days) | inflammation marker (CD68 staining) (CD68; Mode-3 painting, 14 days) | fibrosis (adventitial collagen accumulation) (collagen) | SMILES | IH (IH in a rat model) | apoptosis marker (caspase-3 positive cells) [1]
1 |  |  |  | CC(C)N(C[C@H]1O[C@@H](n2cnc3c(N)ncnc32)[C@H](O)[C@@H]1O)[C@H]1C[C@@H](CCc2nc3cc(C(C)(C)C)ccc3[nH]2)C1 [Pinometostat, pinometostat] | reduced IH | 
2 | the difference was abolished | reduced CD68 staining in the vessel wall | alleviated this fibrotic severity | CO[C@H]1C[C@@H]2CC[C@@H](C)[C@@](O)(O2)C(=O)C(=O)N2CCCC[C@H]2C(=O)O[C@H]([C@H](C)C[C@@H]2CC[C@@H](O)[C@H](OC)C2)CC(=O)[C@H](C)/C=C(\C)[C@@H](O)[C@@H](OC)C(=O)[C@H](C)C[C@H](C)/C=C/C=C/C=C/1C [Rapamycin] |  | lowered the overall number of caspase-3 positive cells
